From EPA's ToxValDB 9.5
In brackets after ≈: the same amount, converted by molar mass. Several values for one entry are separate records, joined by “and”; a condition that tells them apart may be missing. Equal values may be shown once.

Experiments:
Rattus norvegicus [1] = conditions: for LD50 / LC50: acute
Oryctolagus sp. = conditions: for LD50: acute
Rattus norvegicus [2] = conditions: subchronic; duration: 13 weeks; oral; gavage; M/F; Fischer 344; Deaths + Histopathology: Liver-Vacuolar change Liver/bile duct- Hyperplasia Liver/centrilobular - necrosis Kidney-Toxic nephropathy Salivary…
Mus musculus = conditions: oral
Rattus norvegicus [3] = conditions: oral
Rattus norvegicus [4] = conditions: subchronic, oral, gavage
[5] = developmental, duration: 14 days, oral, gavage, Wistar
[6] = short-term, duration: 12 days, inhalation, F, Crl:CD1
[7] = short-term, duration: 28 days, oral, gavage, Wistar
[8] = reproduction developmental, duration: 13 days, oral, gavage, F, New Zealand
[9] = reproduction developmental, oral, diet, Sprague-Dawley, generation: F1
[10] = short-term, duration: 28 days, M, Sprague-Dawley, Endocrine: Hyperplasia/hypertrophy of follicular epithelium of the thyroid
[11] = short-term, duration: 28 days, M, Sprague-Dawley, Neurological: Delayed pupillary reflex

O=C(OCC1CC=CCC1)C1CC=CCC1 (stereo not given)
LD50 (Rattus norvegicus [1]; oral, gavage): 2840 mg/kg | LD50 (Rattus norvegicus [1]; oral, gavage, Sprague-Dawley): ≥ 1360 mg/kg and ≤ 2390 mg/kg | LD50 (Oryctolagus sp.; dermal, occlusive, New Zealand): 5010 mg/kg and ≥ 12300 mg/kg and ≤ 13400 mg/kg

C1OCOCO1 [1,3,5-Trioxane]
LC50 (Rattus norvegicus [1]; inhalation): > 39200 mg/m3 | LD50 (Rattus norvegicus [1]; oral, gavage): 8190 mg/kg | LOAEL (Rattus norvegicus [1]; [5]): 315 mg/kg-day | NOAEL (Rattus norvegicus [1]; [5]): 100 mg/kg-day | LOAEL (Rattus norvegicus [1]; reproduction developmental, duration: 14 days, oral, gavage, F, Wistar): 100 mg/kg-day | LOAEL (Rattus norvegicus [1]; [6]): 3630 mg/m3 | NOAEL (Rattus norvegicus [1]; [6]): 379 mg/m3 | LOAEL (Rattus norvegicus [1]; [7]): 1000 mg/kg-day | NOAEL (Rattus norvegicus [1]; [7]): 200 mg/kg-day | LD50 (Oryctolagus sp.; dermal): > 3980 mg/kg

Clc1ccccn1 [2-Chloropyridine]
LD50 (Rattus norvegicus [1]; oral, gavage): 342 mg/kg | LD50 (Oryctolagus sp.; dermal): < 200 mg/kg

C=CC(C)C#N (stereo not given) [2-Methyl-3-butenenitrile]
LC50 (Rattus norvegicus [1]; inhalation, Sprague-Dawley): 9950 mg/m3 | LD50 (Oryctolagus sp.; dermal, occlusive, New Zealand): 482 mg/kg

CC(CO)CO [2-Methylpropane-1,3-diol]
LC50 (Rattus norvegicus [1]; Inhalation, Wistar): > 5100 mg/m3 | LD50 (Rattus norvegicus [1]; oral, gavage, Wistar): > 5000 mg/kg | NOAEL (Rattus norvegicus [1]; developmental, duration: 20 days, oral, gavage, Wistar): 1000 mg/kg-day | NOAEL (Rattus norvegicus [1]; reproduction developmental, duration: 20 days, oral, gavage, F, Wistar): 1000 mg/kg-day | NOAEL (Rattus norvegicus [1]; reproduction developmental, duration: 20 days, oral, gavage, Wistar, generation: F1): 1000 mg/kg-day | NOAEL (Rattus norvegicus [1]; reproduction developmental, duration: 90 days, oral, gavage, Wistar, generation: F0): 1000 mg/kg-day | NOAEL (Rattus norvegicus [1]; short-term, duration: 14 days, oral, gavage, Wistar): 1000 mg/kg-day | NOAEL (Rattus norvegicus [1]; subchronic, duration: 90 days, oral, gavage, Wistar): 1000 mg/kg-day | LD50 (Oryctolagus sp.; dermal, New Zealand): > 2000 mg/kg | NOAEL (Oryctolagus sp.; reproduction developmental, duration: 28 days, oral, gavage, F, New Zealand): 1000 mg/kg-day | NOAEL (Oryctolagus sp.; reproduction developmental, duration: 28 days, oral, gavage, New Zealand, generation: F1): 1000 mg/kg-day

CCCCNC(=O)OCC#CI [3-Iodo-2-propynyl-N-butylcarbamate]
LD50 (Rattus norvegicus [1]; oral, gavage, Sprague-Dawley): 1800 mg/kg and 1470 mg/kg and 1060 mg/kg | NOAEL (Oryctolagus sp.; [8]): 20 mg/kg-day | NOAEL (Oryctolagus sp.; reproduction developmental, duration: 13 days, oral, gavage, New Zealand, generation: F1): 50 mg/kg-day | NOAEL (Oryctolagus sp.; subchronic, duration: 90 days, oral, diet, New Zealand): 16.5 mg/kg-day

CCCCN(CCCC)C(=S)SCSC(=S)N(CCCC)CCCC [4,4'-Methylene bis(dibutyldithiocarbamate)]
LD50 (Rattus norvegicus [1]; oral): 16000 mg/kg | NOAEL (Rattus norvegicus [1]; reproduction developmental, oral, diet, Sprague-Dawley, generation: F0): 1000 ppm | LOAEL (Rattus norvegicus [1]; [9]): > 20000 ppm | NOAEL (Rattus norvegicus [1]; [9]): > 20000 ppm | LD50 (Oryctolagus sp.; dermal): > 2000 mg/kg

CCCCCCCC/C=C/CCCCCCCCN.F [9-Octadecen-1-amine, hydrofluoride]
NOAEL (Rattus norvegicus [1]; reproduction developmental, oral, gavage, Long-Evans, generation: F0): 6 mg/kg-day | NOAEL (Rattus norvegicus [1]; reproduction developmental, oral, gavage, Long-Evans, generation: F1): 30 mg/kg-day | LOAEL (Oryctolagus sp.; [8]): 1.2 mg/kg-day

ClC(Br)Br [Chlorodibromomethane]
NOEL (Rattus norvegicus [2]): 30 mg/kg-day | LOAEL (Mus musculus; short-term, duration: 14 days, gavage, M, CD1, hepatic): 37 mg/kg-day | LOAEL (Rattus norvegicus [3]; chronic, duration: 2 years, gavage, M/F, Fischer 344, hepatic): 40 mg/kg-day | LOAEL (Rattus norvegicus [4]; M/F, hepatic lesions): 60 mg/kg-day | NOEL (Rattus norvegicus [4]; M/F, hepatic lesions): 21.4 mg/kg-day and 30 mg/kg-day

O=c1[nH]c(=O)[nH]c(=O)[nH]1 [Cyanuric acid]
LD50 (Rattus norvegicus [1]; oral, gavage, Sprague-Dawley): > 5000 mg/kg | LD50 (Oryctolagus sp.; dermal, occlusive, New Zealand): > 5000 mg/kg

ClC1=C(Cl)C2(Cl)C3CCC4C(CCC3C1(Cl)C2(Cl)Cl)C1(Cl)C(Cl)=C(Cl)C4(Cl)C1(Cl)Cl (stereo not given) [Dechlorane Plus]
LC50 (Rattus norvegicus [1]; inhalation, particle): > 300 µg/mL | LC50 (Rattus norvegicus [1]; inhalation, particle, Charles-River): > 2.25 µg/mL | LD50 (Rattus norvegicus [1]; oral, gavage, Sprague-Dawley): > 3160 mg/kg | LD50 (Rattus norvegicus [1]; oral, gavage, Wistar): > 25000 mg/kg | NOAEL (Rattus norvegicus [1]; reproduction developmental, duration: 13 weeks, oral, diet, Crl, generation: F0): 100000 ppm | LOAEL (Rattus norvegicus [1]; reproduction developmental, duration: 28 days, inhalation, particle, Charles River COB, generation: F0): 0.64 mg/L | LD50 (Oryctolagus sp.; dermal): > 8000 mg/kg | LOAEC (Oryctolagus sp.; reproduction developmental, duration: 4 weeks, dermal, non-occlusive, New Zealand, generation: F0): 2000 mg/kg-day

CC(C)CCCCCCc1cccc2c(CCCCCCC(C)C)cccc12 [Diisononylnaphthalene]
LC50 (Rattus norvegicus [1]; Inhalation, Wistar): > 17 µg/mL | LD50 (Rattus norvegicus [1]; oral, gavage, Wistar): > 5000 mg/kg | LD50 (Oryctolagus sp.; dermal, New Zealand): > 20000 mg/kg

CCCCCCCCCCc1cccc(Oc2ccccc2S(=O)(=O)[O-])c1S(=O)(=O)[O-].[Na+].[Na+] [Disodium n-decyldiphenyl ether disulfonate]
LD50 (Rattus norvegicus [1]; oral, gavage, Fischer 344): > 2000 mg/kg | LD50 (Rattus norvegicus [1]; oral, gavage, Sprague-Dawley): 3560 mg/kg | LD50 (Oryctolagus sp.; dermal, occlusive, New Zealand): > 2000 mg/kg

CCCCCCCCCCCCCCCCCCOP1OCC2(CO1)COP(OCCCCCCCCCCCCCCCCCC)OC2 (stereo not given) [Distearyl pentaerythritol diphosphite]
LD50 (Rattus norvegicus [1]; oral, gavage, Sherman Wistar): > 10000 mg/kg | NOAEL (Rattus norvegicus [1]; subchronic, duration: 90 days, oral, diet, Sprague-Dawley): > 288 mg/kg-day | LD50 (Oryctolagus sp.; dermal, New Zealand): > 2000 mg/kg

CCCCCCCCCCCCCCCCCCN(C)CCCCCCCCCCCCCCCCCC [Distearylmethylamine]
LD50 (Rattus norvegicus [1]; oral, gavage, Sprague-Dawley): > 5000 mg/kg | LD50 (Rattus norvegicus [1]; oral, gavage, Wistar): > 2000 mg/kg | LOAEL (% diet) (Rattus norvegicus [1]; subchronic, duration: 13 weeks, oral, diet, Sprague-Dawley): 0.15 | LD50 (Oryctolagus sp.; dermal, occlusive, New Zealand): > 2000 mg/kg

C=C(C#N)C(=O)OCC [Ethyl cyanoacrylate]
LC50 (Rattus norvegicus [1]; inhalation, Wistar): < 21.1 µg/mL | LD50 (Rattus norvegicus [1]; oral, gavage): > 5000 mg/kg | LD50 (Oryctolagus sp.; dermal, occlusive, New Zealand): > 2000 mg/kg

CN(C)CCN(C)C [N,N,N',N'-Tetramethylethylenediamine]
LC50 (Rattus norvegicus [1]; inhalation): > 5610 mg/m3 | LC50 (Rattus norvegicus [1]; inhalation, Sprague-Dawley): > 5610 mg/m3 | LC50 (Rattus norvegicus [1]; inhalation, Wistar): 6260 mg/m3 | LD50 (Oryctolagus sp.; dermal, New Zealand): 1230 mg/kg

CCNc1cccc(C)c1 [N-Ethyl-3-methylaniline]
LC50 (Rattus norvegicus [1]; inhalation): 2.4 µg/mL (≈ 17.8 µM) | LD50 (Rattus norvegicus [1]; oral, Sprague-Dawley): 787 mg/kg and 478 mg/kg | LD50 (Rattus norvegicus [1]; oral, gavage, Wistar): 650 mg/kg | NOAEL (Rattus norvegicus [1]; short-term, duration: 2 weeks, inhalation, Sprague-Dawley): 31 mg/m3 | LD50 (Oryctolagus sp.; dermal, New Zealand): > 2000 mg/kg

O=C(O)C(F)(F)C(F)(F)C(F)(F)F [Perfluorobutanoic acid]
LOAEL (Mus musculus; developmental, duration: 18 days, gavage, CD1, Developmental: Eye opening delayed approximately 1 day): 35 mg/kg-day | NOAEL (Mus musculus; reproduction developmental, duration: 18 days, gavage, CD1, Hepatic: Significant increase in absolute and relative liver weight at ?[…]): 350 mg/kg-day | NOAEL (Mus musculus; short-term, duration: 10 days, diet, M, Hepatic: 63% increase in absolute liver weight): 78 mg/kg-day | NOAEL (Rattus norvegicus [3]; short-term, duration: 5 days, gavage, M/F, Sprague-Dawley, Immunotoxicological: No histological alterations + Neurological: No histological alterations + Reproductive: No histological alterations): 184 mg/kg-day | NOAEL (Rattus norvegicus [3]; short-term, duration: 14 days, diet, M, Sprague-Dawley, Hepatic: Biochemical and ultrastructural evidence of peroxisome proliferation): 20 mg/kg-day | NOAEL (Rattus norvegicus [3]; short-term, duration: 28 days, M/F, Sprague-Dawley, Hepatic: Increased absolute and relative liver weight and decreased serum cholesterol in males at ?30 mg/kg/day / hepatocellular …): 150 mg/kg-day | LOAEL (Rattus norvegicus [3]; [10]): 30 mg/kg-day | NOAEL (Rattus norvegicus [3]; [10]): 6 mg/kg-day | LOAEL (Rattus norvegicus [3]; [11]): 150 mg/kg-day | NOAEL (Rattus norvegicus [3]; [11]): 30 mg/kg-day | NOAEL (Rattus norvegicus [3]; subchronic, duration: 90 days, M/F, Sprague-Dawley, Hematological: Reduced erythrocyte counts (3.8%), hemoglobin (5.7%), and hematocrit (4.5%)): 6 mg/kg-day | NOAEL (Rattus norvegicus [3]; subchronic, duration: 90 days, M/F, Sprague-Dawley, Hepatic: Diffuse panlobular hepatocyte hypertrophy at 30 mg/kg/day in males + Immunotoxicological: No histological alterations + …): 30 mg/kg-day | NOAEL (Rattus norvegicus [3]; subchronic, duration: 90 days, M, Sprague-Dawley, Endocrine: Hypertrophy/hyperplasia of follicular epithelium of the thyroid gland): 6 mg/kg-day | LOAEL (Rattus norvegicus [3]; subchronic, duration: 90 days, M, Sprague-Dawley, Endocrine: Hypertrophy/hyperplasia of follicular epithelium of the thyroid gland + Hematological: Reduced erythrocyte counts (3.8%), …): 30 mg/kg-day | NOAEL (Rattus norvegicus [4]; duration: 90 days, M, Sprague-Dawley, Increased hepatocellular hypertrophy (Liver), Decreased total T4 (Thyroid)): 6 mg/kg-day
